Common to all, as to type: biochemical
The target of assay [1] is SRMS (Homo sapiens, UniProt Q9H3Y6). As to the kind of experiment: Kinome profiling SRMS. To be noted: read-out: Inhibitory activity SRMS; for inhibition at 0.1 µM: 100 nM. On the procedure: (§1) . The kinome-wide selectivity was determined following the methods previously reported by Mohedas et al., ACS Chem Biol 2013, 8, 1291-1302 and Sanvitale et al., PLoS One 2013, 8, e62721.

Assay [2] addresses T1, NEK2 (Homo sapiens, UniProt P51955).
T1 sequence (P51955 1-445): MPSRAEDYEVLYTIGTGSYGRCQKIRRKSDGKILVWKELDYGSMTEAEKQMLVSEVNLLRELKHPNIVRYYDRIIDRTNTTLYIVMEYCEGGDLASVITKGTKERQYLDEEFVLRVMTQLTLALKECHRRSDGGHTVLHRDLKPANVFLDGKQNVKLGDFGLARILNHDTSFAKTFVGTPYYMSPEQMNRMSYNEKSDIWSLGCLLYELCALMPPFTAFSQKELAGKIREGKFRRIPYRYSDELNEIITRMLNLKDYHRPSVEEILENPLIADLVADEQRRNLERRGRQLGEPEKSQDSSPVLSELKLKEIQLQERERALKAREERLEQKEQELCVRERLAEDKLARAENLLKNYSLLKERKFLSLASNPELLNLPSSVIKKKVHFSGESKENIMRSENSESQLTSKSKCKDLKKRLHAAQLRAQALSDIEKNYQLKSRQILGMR
Nature of the assay: Kinome profiling NEK2. To be noted: read-out: Inhibitory activity NEK2; for inhibition at 0.1 µM: 100 nM. As to the method: as §1

Assay [3] deals with CDK2/cyclinE (Homo sapiens, UniProt P24941). Nature of the assay: Kinome profiling CDK2/cyclinE. Particulars: read-out: Inhibitory activity CDK2/cyclinE; for inhibition at 0.1 µM: 100 nM. On the procedure:
as §1

Assay [4] concerns the target IRR (Homo sapiens, UniProt P14616). Nature of the assay: Kinome profiling IRR. Particulars: read-out: Inhibitory activity IRR; for inhibition at 0.1 µM: 100 nM. On the procedure:
as §1

Assay [5] addresses T2, PRKD1 (Homo sapiens, UniProt Q15139).
T2 sequence (Q15139 1-912): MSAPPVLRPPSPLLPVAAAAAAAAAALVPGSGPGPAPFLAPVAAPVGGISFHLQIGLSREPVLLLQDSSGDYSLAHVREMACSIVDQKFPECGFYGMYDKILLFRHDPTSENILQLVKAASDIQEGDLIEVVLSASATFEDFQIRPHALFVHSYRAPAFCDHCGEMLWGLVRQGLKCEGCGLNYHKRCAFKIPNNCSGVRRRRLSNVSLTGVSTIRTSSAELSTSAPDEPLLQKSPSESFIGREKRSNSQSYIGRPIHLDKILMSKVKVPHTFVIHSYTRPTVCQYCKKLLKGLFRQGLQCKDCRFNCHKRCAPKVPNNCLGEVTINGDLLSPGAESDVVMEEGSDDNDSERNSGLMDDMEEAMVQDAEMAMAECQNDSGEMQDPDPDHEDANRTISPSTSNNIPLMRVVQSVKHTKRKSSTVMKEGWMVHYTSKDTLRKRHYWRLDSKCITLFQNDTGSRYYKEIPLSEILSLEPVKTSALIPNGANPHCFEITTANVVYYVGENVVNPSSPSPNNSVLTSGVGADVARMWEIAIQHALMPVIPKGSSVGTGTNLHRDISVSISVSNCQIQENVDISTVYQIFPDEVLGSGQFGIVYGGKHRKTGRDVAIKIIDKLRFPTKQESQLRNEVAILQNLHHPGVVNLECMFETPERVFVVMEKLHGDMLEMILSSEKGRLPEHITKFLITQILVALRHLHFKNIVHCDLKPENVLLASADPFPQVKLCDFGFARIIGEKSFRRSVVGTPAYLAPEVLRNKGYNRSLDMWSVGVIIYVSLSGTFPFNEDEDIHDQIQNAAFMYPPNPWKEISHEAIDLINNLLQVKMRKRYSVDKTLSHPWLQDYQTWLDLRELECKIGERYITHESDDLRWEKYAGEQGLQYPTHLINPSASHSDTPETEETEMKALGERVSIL
As to the kind of experiment: Kinome profiling PRKD1. To be noted: read-out: Inhibitory activity PRKD1; for inhibition at 0.1 µM: 100 nM. As to the method:
as §1

Assay [6] has as its target ERB-B2 (Homo sapiens, UniProt P04626). As to the kind of experiment: Kinome profiling ERB-B2. To be noted: read-out: Inhibitory activity ERB-B2; for inhibition at 0.1 µM: 100 nM. As to the method: as §1
Assay [7] concerns the target CHEK2 (Homo sapiens, UniProt O96017). As to the kind of experiment: Kinome profiling CHEK2. To be noted: read-out: Inhibitory activity CHEK2; for inhibition at 0.1 µM: 100 nM. As to the method: as §1
In assay [8] the target is T3, ARK5 (Homo sapiens, UniProt O60285).
T3 sequence (O60285 1-661): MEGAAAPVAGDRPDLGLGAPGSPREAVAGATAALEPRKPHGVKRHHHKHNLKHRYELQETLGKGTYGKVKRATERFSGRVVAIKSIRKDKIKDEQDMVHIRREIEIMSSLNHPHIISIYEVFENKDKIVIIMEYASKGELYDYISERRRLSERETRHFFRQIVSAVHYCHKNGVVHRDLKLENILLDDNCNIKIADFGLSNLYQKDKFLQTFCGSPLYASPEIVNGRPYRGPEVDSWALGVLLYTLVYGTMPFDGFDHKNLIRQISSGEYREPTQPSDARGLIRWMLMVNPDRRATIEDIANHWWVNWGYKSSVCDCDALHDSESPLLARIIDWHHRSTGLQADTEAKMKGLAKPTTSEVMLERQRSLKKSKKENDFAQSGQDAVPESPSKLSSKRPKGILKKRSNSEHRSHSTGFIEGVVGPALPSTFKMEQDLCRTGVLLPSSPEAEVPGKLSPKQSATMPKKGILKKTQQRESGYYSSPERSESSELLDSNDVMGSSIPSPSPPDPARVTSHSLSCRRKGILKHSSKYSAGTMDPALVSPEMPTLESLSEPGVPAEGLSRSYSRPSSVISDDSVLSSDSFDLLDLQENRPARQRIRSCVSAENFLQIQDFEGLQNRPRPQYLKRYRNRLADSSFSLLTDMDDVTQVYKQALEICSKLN
As to the kind of experiment: Kinome profiling ARK5. To be noted: read-out: Inhibitory activity ARK5; for inhibition at 0.1 µM: 100 nM. On the procedure:
as §1

Assay [9] has as its target CK1-γ3 (Homo sapiens, UniProt Q9Y6M4). Nature of the assay: Kinome profiling CK1-γ3. To be noted: read-out: Inhibitory activity CK1-γ3; for inhibition at 0.1 µM: 100 nM. On the procedure: as §1
Assay [10] has as its target CAMK2δ (Homo sapiens, UniProt Q13557). Nature of the assay: Kinome profiling CAMK2δ. Particulars: read-out: Inhibitory activity CAMK2δ; for inhibition at 0.1 µM: 100 nM. As to the method:
as §1

Sequence of SRMS (Q9H3Y6 whole entry): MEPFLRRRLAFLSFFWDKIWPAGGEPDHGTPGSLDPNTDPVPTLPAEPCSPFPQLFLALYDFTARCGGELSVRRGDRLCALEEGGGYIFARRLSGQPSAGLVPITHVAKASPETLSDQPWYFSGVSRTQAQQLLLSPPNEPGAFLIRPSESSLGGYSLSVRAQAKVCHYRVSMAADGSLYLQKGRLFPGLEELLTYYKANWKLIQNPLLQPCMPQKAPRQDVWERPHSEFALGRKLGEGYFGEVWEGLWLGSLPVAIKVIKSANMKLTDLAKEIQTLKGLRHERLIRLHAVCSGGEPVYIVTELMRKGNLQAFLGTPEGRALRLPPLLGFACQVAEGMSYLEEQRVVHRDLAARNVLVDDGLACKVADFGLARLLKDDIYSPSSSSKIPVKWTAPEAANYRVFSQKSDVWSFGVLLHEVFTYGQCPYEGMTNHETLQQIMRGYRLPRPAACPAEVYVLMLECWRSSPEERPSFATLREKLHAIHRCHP
Sequence of IRR (P14616 27-1297): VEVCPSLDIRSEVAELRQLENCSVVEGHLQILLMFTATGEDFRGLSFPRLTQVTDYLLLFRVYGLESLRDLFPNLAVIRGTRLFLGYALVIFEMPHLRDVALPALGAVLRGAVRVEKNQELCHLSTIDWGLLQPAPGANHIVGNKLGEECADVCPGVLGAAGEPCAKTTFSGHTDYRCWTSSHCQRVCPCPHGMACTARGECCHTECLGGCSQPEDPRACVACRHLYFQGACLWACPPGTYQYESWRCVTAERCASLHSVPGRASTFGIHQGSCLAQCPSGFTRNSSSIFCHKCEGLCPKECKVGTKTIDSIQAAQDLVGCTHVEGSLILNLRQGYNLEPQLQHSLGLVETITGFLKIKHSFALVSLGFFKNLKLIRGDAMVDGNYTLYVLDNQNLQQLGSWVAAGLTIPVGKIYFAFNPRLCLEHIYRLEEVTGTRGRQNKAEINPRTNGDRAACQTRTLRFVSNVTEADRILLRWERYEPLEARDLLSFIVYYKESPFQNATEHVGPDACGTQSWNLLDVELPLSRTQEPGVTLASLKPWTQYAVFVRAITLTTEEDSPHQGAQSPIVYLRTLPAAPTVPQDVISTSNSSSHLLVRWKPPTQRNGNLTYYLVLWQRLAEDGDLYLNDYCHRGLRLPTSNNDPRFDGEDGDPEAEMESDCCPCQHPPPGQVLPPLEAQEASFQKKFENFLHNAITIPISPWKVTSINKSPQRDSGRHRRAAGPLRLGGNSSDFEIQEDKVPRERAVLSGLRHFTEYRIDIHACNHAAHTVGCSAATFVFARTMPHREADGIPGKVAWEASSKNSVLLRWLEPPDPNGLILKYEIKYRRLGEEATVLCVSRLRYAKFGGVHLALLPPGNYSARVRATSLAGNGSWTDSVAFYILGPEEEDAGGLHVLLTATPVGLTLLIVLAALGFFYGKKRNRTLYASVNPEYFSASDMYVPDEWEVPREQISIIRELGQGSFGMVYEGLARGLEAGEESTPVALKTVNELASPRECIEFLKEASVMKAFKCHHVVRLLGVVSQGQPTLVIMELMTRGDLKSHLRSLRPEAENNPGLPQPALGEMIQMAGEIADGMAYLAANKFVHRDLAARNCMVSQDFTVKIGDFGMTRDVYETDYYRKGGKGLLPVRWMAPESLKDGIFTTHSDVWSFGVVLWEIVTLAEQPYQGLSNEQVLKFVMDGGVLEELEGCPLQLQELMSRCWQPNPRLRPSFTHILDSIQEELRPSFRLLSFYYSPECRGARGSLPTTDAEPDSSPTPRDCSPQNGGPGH
Sequence of ERB-B2 (P04626 23-1255): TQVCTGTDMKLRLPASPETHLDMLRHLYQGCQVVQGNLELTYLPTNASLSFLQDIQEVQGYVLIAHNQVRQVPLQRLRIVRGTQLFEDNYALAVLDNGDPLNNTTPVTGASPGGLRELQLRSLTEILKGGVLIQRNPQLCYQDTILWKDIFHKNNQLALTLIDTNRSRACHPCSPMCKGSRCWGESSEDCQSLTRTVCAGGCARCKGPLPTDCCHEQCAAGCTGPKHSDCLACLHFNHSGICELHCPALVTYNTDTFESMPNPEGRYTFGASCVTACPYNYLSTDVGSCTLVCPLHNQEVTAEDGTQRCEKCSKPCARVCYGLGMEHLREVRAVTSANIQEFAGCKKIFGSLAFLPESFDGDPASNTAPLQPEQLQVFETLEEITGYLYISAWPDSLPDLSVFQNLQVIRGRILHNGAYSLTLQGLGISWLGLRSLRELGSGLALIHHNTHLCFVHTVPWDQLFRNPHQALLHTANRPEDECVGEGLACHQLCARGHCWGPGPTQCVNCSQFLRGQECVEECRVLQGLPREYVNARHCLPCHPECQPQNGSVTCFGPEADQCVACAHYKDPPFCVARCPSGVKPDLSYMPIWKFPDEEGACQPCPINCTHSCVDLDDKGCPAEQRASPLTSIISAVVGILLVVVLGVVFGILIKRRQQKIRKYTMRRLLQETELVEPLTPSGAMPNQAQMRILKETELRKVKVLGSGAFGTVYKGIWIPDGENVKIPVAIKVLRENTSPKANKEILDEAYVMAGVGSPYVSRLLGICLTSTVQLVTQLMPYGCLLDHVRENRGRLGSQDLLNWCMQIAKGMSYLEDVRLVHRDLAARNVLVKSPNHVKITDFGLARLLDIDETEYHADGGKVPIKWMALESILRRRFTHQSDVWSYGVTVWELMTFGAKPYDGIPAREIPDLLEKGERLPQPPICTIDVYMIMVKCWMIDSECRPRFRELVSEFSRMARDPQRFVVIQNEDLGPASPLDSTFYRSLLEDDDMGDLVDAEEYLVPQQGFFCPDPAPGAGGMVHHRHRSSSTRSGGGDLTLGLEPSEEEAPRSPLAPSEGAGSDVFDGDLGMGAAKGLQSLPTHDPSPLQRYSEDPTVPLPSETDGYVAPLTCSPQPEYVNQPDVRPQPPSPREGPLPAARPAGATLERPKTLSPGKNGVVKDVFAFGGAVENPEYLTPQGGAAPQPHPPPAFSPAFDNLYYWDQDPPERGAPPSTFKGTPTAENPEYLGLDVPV
Sequence of CAMK2δ (Q13557 whole entry): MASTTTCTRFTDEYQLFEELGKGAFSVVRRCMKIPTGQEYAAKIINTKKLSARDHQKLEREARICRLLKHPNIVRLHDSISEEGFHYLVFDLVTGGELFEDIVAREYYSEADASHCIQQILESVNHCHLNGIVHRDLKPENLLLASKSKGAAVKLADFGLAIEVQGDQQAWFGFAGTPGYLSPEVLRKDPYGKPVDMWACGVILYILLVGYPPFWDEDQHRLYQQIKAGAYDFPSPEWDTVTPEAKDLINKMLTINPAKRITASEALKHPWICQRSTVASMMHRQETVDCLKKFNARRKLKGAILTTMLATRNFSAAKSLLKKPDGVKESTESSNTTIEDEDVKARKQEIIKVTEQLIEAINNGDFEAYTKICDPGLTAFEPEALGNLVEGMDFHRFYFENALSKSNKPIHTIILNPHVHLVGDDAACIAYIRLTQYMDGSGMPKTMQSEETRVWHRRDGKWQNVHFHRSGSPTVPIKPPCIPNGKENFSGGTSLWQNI
Sequence of CK1-γ3 (Q9Y6M4 whole entry): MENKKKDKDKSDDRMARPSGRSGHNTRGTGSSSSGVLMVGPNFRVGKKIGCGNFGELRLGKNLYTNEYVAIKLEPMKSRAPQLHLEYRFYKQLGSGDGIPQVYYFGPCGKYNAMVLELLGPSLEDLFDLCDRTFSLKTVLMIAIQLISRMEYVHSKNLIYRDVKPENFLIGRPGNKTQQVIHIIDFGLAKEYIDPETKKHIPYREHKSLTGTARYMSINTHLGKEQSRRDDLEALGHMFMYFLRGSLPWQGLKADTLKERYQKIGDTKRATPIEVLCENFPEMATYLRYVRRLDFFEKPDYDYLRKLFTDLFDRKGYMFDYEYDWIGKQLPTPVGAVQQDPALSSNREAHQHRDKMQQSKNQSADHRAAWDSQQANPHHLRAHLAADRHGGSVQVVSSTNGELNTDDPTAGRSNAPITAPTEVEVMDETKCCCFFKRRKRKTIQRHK
Sequence of CHEK2 (O96017 whole entry): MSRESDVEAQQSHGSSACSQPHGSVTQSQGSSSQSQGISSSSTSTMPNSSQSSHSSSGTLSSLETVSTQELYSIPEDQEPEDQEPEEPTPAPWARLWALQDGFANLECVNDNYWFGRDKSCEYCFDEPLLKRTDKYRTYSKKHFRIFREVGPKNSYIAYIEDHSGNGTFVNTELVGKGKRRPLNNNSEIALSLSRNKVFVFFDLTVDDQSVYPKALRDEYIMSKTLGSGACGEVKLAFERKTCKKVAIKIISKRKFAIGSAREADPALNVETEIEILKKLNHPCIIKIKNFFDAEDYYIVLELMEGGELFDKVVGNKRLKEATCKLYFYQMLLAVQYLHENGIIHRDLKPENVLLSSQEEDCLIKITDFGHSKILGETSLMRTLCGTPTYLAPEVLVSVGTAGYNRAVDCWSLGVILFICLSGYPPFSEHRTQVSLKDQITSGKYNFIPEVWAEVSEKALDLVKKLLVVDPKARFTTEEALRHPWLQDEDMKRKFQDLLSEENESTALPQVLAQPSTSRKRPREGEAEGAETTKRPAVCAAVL

As for `COc1cc(-c2cc(-c3ccc(N4CCNCC4)cc3)cnc2C)cc(OC)c1OC` [Compound 10, 1-(4-(6-methyl-5-(3,4,5-trimethoxyphenyl)pyridin-3-yl)phenyl)piperazine], the inhibition at 0.1 µM in [1] was 0%; in assay [2] it was 3%; in [3], -1%; in [4] it was 2%; in assay [5] it was 4%; in assay [6], 0%. For the same molecule, the inhibition at 0.1 µM in assay [7], in assay [8], in assay [9] and in [10] was 1% each time. The inhibition at 1 µM worked out at 1% in [1]; 2% in assay [2]; 3% in [3]; 1% in assay [4]; 23% in assay [5]; 3% in assay [6]. The inhibition at 1 µM in [7] turned out to be 8%; in assay [8], 1%; in [9], 10%; in assay [10], 1%.

For the molecule `COc1cc(-c2cc(-c3ccc(N4CCNCC4)cc3)cnc2N)cc(OC)c1OC` [Compound 15, 5-(4-(piperazin-1-yl)phenyl)-3-(3,4,5-trimethoxyphenyl)pyridin-2-amine], the inhibition at 0.1 µM in assay [1] turned out to be 11%; in assay [2], 4%; in assay [3], 1%; in [4] it was 3%; in assay [5], 11%; in [6], 0%. Further, the inhibition at 0.1 µM in assay [7] came to 2%; in assay [8], 2%; in [9] it was 7%; in assay [10], 1%. Moreover, the inhibition at 1 µM was 33% in [1]; 2% in assay [2]; 2% in [3]; 3% in assay [4]; 50% in [5]; 5% in assay [6]. Further, the inhibition at 1 µM in assay [7] amounted to 7%; in assay [8] it was 8%; in assay [9] it was 30%; in assay [10], 3%.

These data come from patent publication US20170190705A1, “Compositions and Methods for Inhibiting BMP” (THE BRIGHAM AND WOMAN'S HOSPITAL, INC., priority 2014, published 2017).
